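Interpolation was linear, between the two tested concentrations surrounding the appropriate level; five concentrations were tested over 48 hours in 96-well plates. GI50: concentration for 50% inhibition of growth.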 Activity calls are given as the source filed them. No stated cut-off is given here; in the data, active = GI50 up to about 1.1 µM and inactive = higher.
Key:
Experiment in all cases: NCI tumour cell line growth inhibition, 48 h
HOP-62 = tested on: HOP-62
NCI-H522 = tested on: NCI-H522
SNB-19 = tested on: SNB-19
SK-MEL-5 = tested on: SK-MEL-5
UO-31 = tested on: UO-31
ACHN = tested on: ACHN
SR = tested on: SR
HCT-15 = tested on: HCT-15
SF-268 = tested on: SF-268
SK-OV-3 = tested on: SK-OV-3
UACC-62 = tested on: UACC-62
MDA-MB-231 = tested on: MDA-MB-231
OVCAR-3 = tested on: OVCAR-3
NCI-H23 = tested on: NCI-H23
IGROV-1 = tested on: IGROV-1
UACC-257 = tested on: UACC-257
SF-295 = tested on: SF-295
TK-10 = tested on: TK-10
NCI-H460 = tested on: NCI-H460
EKVX = tested on: EKVX
RXF 393 = tested on: RXF 393
OVCAR-5 = tested on: OVCAR-5
HCC 2998 = tested on: HCC 2998
MDA-N = tested on: MDA-N
BT-549 = tested on: BT-549
U-251 = tested on: U-251
HOP-92 = tested on: HOP-92
OVCAR-8 = tested on: OVCAR-8
CCRF-CEM = tested on: CCRF-CEM
Hs-578T = tested on: Hs-578T
SK-MEL-2 = tested on: SK-MEL-2
SN12C = tested on: SN12C
A498 = tested on: A498
T47D = tested on: T47D
LOX IMVI = tested on: LOX IMVI
A549 = tested on: A549
OVCAR-4 = tested on: OVCAR-4
MCF7 = tested on: MCF7
MOLT-4 = tested on: MOLT-4
NCI-H226 = tested on: NCI-H226
SW-620 = tested on: SW-620
MDA-MB-435 = tested on: MDA-MB-435
KM12 = tested on: KM12
NCI/ADR-RES = tested on: NCI/ADR-RES
HCT-116 = tested on: HCT-116
SNB-75 = tested on: SNB-75
M14 = tested on: M14
SF-539 = tested on: SF-539
SK-MEL-28 = tested on: SK-MEL-28
PC-3 = tested on: PC-3
RPMI-8226 = tested on: RPMI-8226
CAKI-1 = tested on: CAKI-1
K562 = tested on: K562
786-0 = tested on: 786-0
HT-29 = tested on: HT-29
HL-60 = tested on: HL-60
COLO 205 = tested on: COLO 205
Malme-3M = tested on: Malme-3M
DU-145 = tested on: DU-145

COC(=O)C(/C(=N/N)C(=O)Nc1cccc(O)c1)c1nc2ccccc2nc1O (stereo unspecified)
GI50 (HOP-62): > 100 µM (inactive)
GI50 (NCI-H522): > 100 µM (inactive)
GI50 (SNB-19): > 100 µM (inactive)
GI50 (SK-MEL-5): > 100 µM (inactive)
GI50 (UO-31): > 100 µM (inactive)
GI50 (ACHN): > 100 µM (inactive)
GI50 (SR): > 100 µM (inactive)
GI50 (HCT-15): > 100 µM
GI50 (SF-268): > 100 µM (inactive)
GI50 (SK-OV-3): > 100 µM (inactive)
GI50 (UACC-62): > 100 µM (inactive)
GI50 (MDA-MB-231): > 100 µM (inactive)
GI50 (OVCAR-3): > 100 µM (inactive)
GI50 (NCI-H23): > 100 µM (inactive)
GI50 (IGROV-1): > 100 µM (inactive)
GI50 (UACC-257): > 100 µM (inactive)
GI50 (SF-295): > 100 µM (inactive)
GI50 (TK-10): > 100 µM (inactive)
GI50 (NCI-H460): > 100 µM (inactive)
GI50 (EKVX): > 100 µM (inactive)
GI50 (RXF 393): > 100 µM (inactive)
GI50 (OVCAR-5): > 100 µM (inactive)
GI50 (HCC 2998): > 100 µM (inactive)
GI50 (MDA-N): > 100 µM (inactive)
GI50 (BT-549): > 100 µM (inactive)
GI50 (U-251): > 100 µM (inactive)
GI50 (HOP-92): > 100 µM (inactive)
GI50 (OVCAR-8): > 100 µM (inactive)
GI50 (CCRF-CEM): > 10 µM (inactive)
GI50 (Hs-578T): > 100 µM (inactive)
GI50 (SK-MEL-2): > 100 µM (inactive)
GI50 (SN12C): > 100 µM (inactive)
GI50 (A498): > 100 µM (inactive)
GI50 (T47D): > 100 µM (inactive)
GI50 (LOX IMVI): > 100 µM (inactive)
GI50 (A549): > 100 µM (inactive)
GI50 (OVCAR-4): > 100 µM (inactive)
GI50 (MCF7): > 100 µM (inactive)
GI50 (MOLT-4): > 100 µM (inactive)
GI50 (NCI-H226): > 100 µM (inactive)
GI50 (SW-620): > 100 µM (inactive)
GI50 (MDA-MB-435): > 100 µM (inactive)
GI50 (KM12): > 100 µM (inactive)
GI50 (NCI/ADR-RES): > 100 µM (inactive)
GI50 (HCT-116): > 100 µM (inactive)
GI50 (SNB-75): > 100 µM (inactive)
GI50 (M14): > 100 µM (inactive)
GI50 (SF-539): > 100 µM (inactive)
GI50 (SK-MEL-28): > 100 µM (inactive)
GI50 (PC-3): > 100 µM (inactive)
GI50 (RPMI-8226): > 10 µM (inactive)
GI50 (CAKI-1): > 100 µM (inactive)
GI50 (K562): > 100 µM (inactive)
GI50 (786-0): > 100 µM (inactive)
GI50 (HT-29): > 100 µM (inactive)
GI50 (HL-60): > 100 µM (inactive)

COC(=O)C(NC(=O)C(CC(=O)OC(C)(C)C)NC(=O)OC(C)(C)C)C(O)c1ccccc1 (stereo unspecified)
GI50 (HOP-62): > 100 µM (inactive)
GI50 (NCI-H522): > 100 µM (inactive)
GI50 (SNB-19): > 100 µM (inactive)
GI50 (SK-MEL-5): > 100 µM (inactive)
GI50 (UO-31): > 100 µM (inactive)
GI50 (ACHN): > 100 µM (inactive)
GI50 (HCT-15): > 100 µM
GI50 (SF-268): > 100 µM (inactive)
GI50 (SK-OV-3): 16.1 µM (inactive)
GI50 (UACC-62): 3.92 µM (inactive)
GI50 (MDA-MB-231): > 100 µM (inactive)
GI50 (OVCAR-3): > 100 µM (inactive)
GI50 (NCI-H23): > 100 µM (inactive)
GI50 (IGROV-1): > 100 µM (inactive)
GI50 (UACC-257): 74.5 µM (inactive)
GI50 (TK-10): > 100 µM (inactive)
GI50 (NCI-H460): > 100 µM (inactive)
GI50 (EKVX): > 100 µM (inactive)
GI50 (RXF 393): 97.5 µM (inactive)
GI50 (OVCAR-5): > 100 µM (inactive)
GI50 (MDA-N): > 100 µM (inactive)
GI50 (BT-549): > 100 µM (inactive)
GI50 (COLO 205): > 100 µM (inactive)
GI50 (Malme-3M): > 100 µM (inactive)
GI50 (U-251): > 100 µM (inactive)
GI50 (OVCAR-8): > 100 µM (inactive)
GI50 (DU-145): > 100 µM (inactive)
GI50 (CCRF-CEM): > 100 µM (inactive)
GI50 (Hs-578T): > 100 µM (inactive)
GI50 (SK-MEL-2): > 100 µM (inactive)
GI50 (SN12C): > 100 µM (inactive)
GI50 (A498): > 100 µM (inactive)
GI50 (T47D): > 100 µM (inactive)
GI50 (LOX IMVI): > 100 µM (inactive)
GI50 (A549): > 100 µM (inactive)
GI50 (OVCAR-4): > 100 µM (inactive)
GI50 (MCF7): > 100 µM (inactive)
GI50 (MOLT-4): > 100 µM (inactive)
GI50 (NCI-H226): > 100 µM (inactive)
GI50 (SW-620): > 100 µM (inactive)
GI50 (MDA-MB-435): > 100 µM (inactive)
GI50 (KM12): > 100 µM (inactive)
GI50 (NCI/ADR-RES): > 100 µM (inactive)
GI50 (HCT-116): > 100 µM (inactive)
GI50 (SNB-75): > 100 µM (inactive)
GI50 (M14): > 100 µM (inactive)
GI50 (SF-539): > 100 µM (inactive)
GI50 (SK-MEL-28): > 100 µM (inactive)
GI50 (PC-3): > 100 µM (inactive)
GI50 (RPMI-8226): > 100 µM (inactive)
GI50 (CAKI-1): > 100 µM (inactive)
GI50 (K562): > 100 µM (inactive)
GI50 (786-0): > 100 µM (inactive)
GI50 (HT-29): > 100 µM (inactive)

CCN(CC)Cc1ccc(C(=S)Nc2ccc(Cl)cc2)s1
GI50 (HOP-62): 16.3 µM (inactive)
GI50 (NCI-H522): 11.4 µM (inactive)
GI50 (SNB-19): 16.5 µM (inactive)
GI50 (SK-MEL-5): 4.24 µM (inactive)
GI50 (UO-31): 11.4 µM (inactive)
GI50 (ACHN): 14.2 µM (inactive)
GI50 (SR): 3.64 µM (inactive)
GI50 (HCT-15): 10.7 µM
GI50 (SF-268): 11.3 µM (inactive)
GI50 (SK-OV-3): 15.2 µM (inactive)
GI50 (UACC-62): 9.57 µM (inactive)
GI50 (OVCAR-3): 15.3 µM (inactive)
GI50 (NCI-H23): 2.34 µM (inactive)
GI50 (IGROV-1): 11.4 µM (inactive)
GI50 (UACC-257): 4.81 µM (inactive)
GI50 (SF-295): 9.91 µM (inactive)
GI50 (NCI-H460): 11.9 µM (inactive)
GI50 (EKVX): 4.06 µM (inactive)
GI50 (OVCAR-5): 11.3 µM (inactive)
GI50 (HCC 2998): 12.6 µM (inactive)
GI50 (MDA-N): 10.7 µM (inactive)
GI50 (BT-549): 5.18 µM (inactive)
GI50 (COLO 205): 1.99 µM (inactive)
GI50 (U-251): 12 µM (inactive)
GI50 (OVCAR-8): 3.75 µM (inactive)
GI50 (DU-145): 15 µM (inactive)
GI50 (CCRF-CEM): 11.9 µM (inactive)
GI50 (Hs-578T): 10.4 µM (inactive)
GI50 (SK-MEL-2): 15.1 µM (inactive)
GI50 (A498): 12 µM (inactive)
GI50 (T47D): 11.2 µM (inactive)
GI50 (LOX IMVI): 4.82 µM (inactive)
GI50 (A549): 11.2 µM (inactive)
GI50 (OVCAR-4): 10 µM (inactive)
GI50 (MCF7): 11 µM (inactive)
GI50 (MOLT-4): 4.54 µM (inactive)
GI50 (SW-620): 12.2 µM (inactive)
GI50 (MDA-MB-435): 9.91 µM (inactive)
GI50 (KM12): 11.9 µM (inactive)
GI50 (NCI/ADR-RES): 7.45 µM (inactive)
GI50 (HCT-116): 10.5 µM (inactive)
GI50 (M14): 3.64 µM (inactive)
GI50 (SF-539): 13.9 µM (inactive)
GI50 (SK-MEL-28): 6.92 µM (inactive)
GI50 (PC-3): 13.2 µM (inactive)
GI50 (RPMI-8226): 6.31 µM (inactive)
GI50 (CAKI-1): 12.7 µM (inactive)
GI50 (K562): 1.87 µM (inactive)
GI50 (786-0): 13.1 µM (inactive)
GI50 (HT-29): 2.91 µM (inactive)
GI50 (HL-60): 2.75 µM (inactive)

From ChEMBL document CHEMBL1201862, “PubChem BioAssay data set” (2004)
